Data taken from patent US8188001B2, “Fungicidal mixtures” (BASF Aktiengesellschaft, priority 2002, dated 2012).

How the values were obtained:
Sphaerotheca fuliginea = test: Protective activity against mildew of cucumber, spray on potted cucumber seedlings; assay type: in vivo; conditions: cucumber cv. chinese snake, 7 days
Experimental: (§1) The active compounds, separately or together, were formulated as a 10% emulsion in a mixture of 85% by weight of cyclohexanone and 5% by weight of emulsifier, and diluted with water to the desired concentration.
(§2) Evaluation was carried out by determining the infected leaf areas in percent. These percentages were converted into efficacies. The efficacy (W) was calculated as follows using Abbot's formula:
(§3) [formula] • α corresponds to the fungal infection of the treated plants in % and • β corresponds to the fungal infection of the untreated (control) plants in %.
(§4) An efficacy of 0 means that the infection level of the treated plants corresponds to that of the untreated control plants; an efficacy of 100 means that the treated plants were not infected.
(§5) The expected efficacies of the mixtures of the active compounds were determined using Colby's formula [R. S. Colby, Weeds 15, 20-22 (1967)] and compared with the observed efficacies. Colby formula: E=x+y−xy/100 • E expected efficacy, expressed in % of the untreated control, when using the mixture of the active compounds A and B at the concentrations a and b • x efficacy, expressed in % of the untreated control, when using active compound A at a concentration of a • y efficacy, expressed in % of the untreated control, when using active compound B at a concentration of b.
Use example 2: Protective activity against mildew of cucumber caused by Sphaerotheca fuliginea
Leaves of cucumber seedlings of the cultivar “chinese snake”, grown in pots, were, at the cotyledon stage, sprayed to runoff point with an aqueous preparation of active compound which had been prepared from a stock solution comprising 10% of active compound, 85% of cyclohexanone and 5% of emulsifier. 20 hours after the spray coating had dried on, the plants were inoculated with an aqueous spore suspension of mildew of cucumber (Sphaerotheca fuliginea). The plants were then cultivated in a greenhouse at 20-24° C. and 60-80% relative atmospheric humidity for 7 days. The extent of the mildew development was then determined visually in % infection of the cotyledon area. The visually determined values for the percentage of diseased leaf areas were converted into efficacies in % of the untreated control. An efficacy of 0 means the same disease level as in the untreated control, an efficacy of 100 means a disease level of 0%. The expected efficacies for the combinations of active compounds were determined using Colby's formula, mentioned above, and compared with the observed efficacies.

[1] = system: Erysiphe [syn. Blumeria] graminis form a specialis. tritici; test: Activity against mildew of wheat, protective spray on potted wheat seedlings; assay type: in vivo; conditions: wheat cv. Kanzler, 7 days
Experimental: as §1, §2, §3, §4, §5
Use example 1: Activity against mildew of wheat caused by Erysiphe [syn. Blumeria] graminis form a specialis. tritici
Leaves of wheat seedlings of the cultivar “Kanzler”, grown in pots, were sprayed to runoff point with an aqueous preparation of active compound which had been prepared from a stock solution comprising 10% of active compound, 85% of cyclohexanone and 5% of emulsifier, and 24 hours after the spray coating had dried on, the leaves were dusted with spores of mildew of wheat (Erysiphe [syn. Blumeria] graminis form a specialis. tritici). The test plants were then placed in a greenhouse at 20-24° C. and 60-90% relative atmospheric humidity. After 7 days, the extent of the mildew development was determined visually in % infection of the entire leaf area.
The visually determined values for the percentage of diseased leaf areas were converted into efficacies in % of the untreated control. An efficacy of 0 means the same disease level as in the untreated control, an efficacy of 100 means a disease level of 0%. The expected efficacies for the combinations of active compounds were determined using Colby's formula, mentioned above, and compared with the observed efficacies.

| SMILES | Efficacy in % of the untreated control (Sphaerotheca fuliginea; 0.015 ppm in the spray liquor) [%] | Efficacy in % of the untreated control (Sphaerotheca fuliginea; 0.06 ppm in the spray liquor) [%] | Efficacy in % of the untreated control ([1]; 0.015 ppm in the spray liquor) [%] | Efficacy in % of the untreated control ([1]; 0.06 ppm in the spray liquor) [%] | Efficacy in % of the untreated control ([1]; 0.25 ppm in the spray liquor) [%] | Efficacy in % of the untreated control ([1]; 1 ppm in the spray liquor) [%] | Efficacy in % of the untreated control ([1]; 4 ppm in the spray liquor) [%] | Efficacy in % of the untreated control (Sphaerotheca fuliginea; 0.25 ppm in the spray liquor) [%] | Efficacy in % of the untreated control (Sphaerotheca fuliginea; 4 ppm in the spray liquor) [%] | Efficacy in % of the untreated control (Sphaerotheca fuliginea; 1 ppm in the spray liquor) [%] |
| --- | --- | --- | --- | --- | --- | --- | --- | --- | --- | --- |
| COc1cc(C)c(C(=O)c2c(OC)ccc(Br)c2C)c(OC)c1OC [Compound IV, metrafenone] | 0 | 0 | 30 | 53 |  |  |  |  |  |  |
| O=C(Cc1ccccc1)N/C(=N\OCC1CC1)c1c(OC(F)F)ccc(F)c1F [Compound VI] | 0 | 33 |  | 0 | 53 |  |  |  |  |  |
| Cc1ccc(-c2c(Cl)nc(C#N)n2S(=O)(=O)N(C)C)cc1 [Compound XI, cyazofamid] |  |  |  | 0 | 22 | 22 |  |  |  |  |
| N#Cc1sc2c(=O)c3ccccc3c(=O)c=2sc1C#N [Compound VIII, dithianon] |  |  |  |  |  | 0 | 0 |  |  |  |
| O=C(Nc1ccccc1-c1ccc(Cl)cc1)c1cccnc1Cl [Compound II, boscalid] |  | 0 |  | 0 | 0 | 0 | 0 | 0 | 78 |  |
| OC(Cc1ccccc1Cl)(Cn1nc[nH]c1=S)C1(Cl)CC1 (stereo not shown) [Compound I, 2-[2-(1-chlorocyclopropyl)-3-(2-chlorophenyl)-2-hydroxypropyl]-2,4-dihydro-[1,2,4]-triazole-3-thione] |  |  |  |  | 0 | 0 | 42 | 56 |  | 78 |
